# Data: patent publication US20260272966A1, “COMBINATION TREATMENT FOR OVARIAN CANCER” (THE JOHNS HOPKINS UNIVERSITY, priority 2023, published 2026)
# pIC50: −log10 of the molar value. “Also recorded” adds a separate entry of the source.
# Columns and labels:
# OV90 = assay: Cell viability assay (CellTiter-Blue), OV90; type: cell-based; settings: for toxicity of the chemotherapeutic agent with ivospemin co-treatment (cell viability): OV90, 2 μM ivospemin 96 h, chemotherapeutic last 24 h
# Excerpt: (§1) Cell lines, culture conditions, and reagents. Ovarian adenocarcinoma cell lines A2780 and ACRP were maintained in RPMI 1640 containing 10% fetal bovine serum. Ovarian adenocarcinoma lines CaOV-3 and OV90 were maintained in DMEM supplemented with 10% fetal bovine serum. ID8 mouse ovarian surface epithelial cells (MOSE) overexpressing VEGF and β-Defensin (VDID8+) were maintained in RPMI 1640 supplemented with 10% fetal bovine serum. […] All chemotherapeutics were purchased commercially from Sigma-Aldrich (St. Louis, MO).
# (§2) Cell viability assays. Cells were seeded in triplicate wells per condition with a total cell count of 2×10^3 cells per well of a 96-well plate and allowed to adhere overnight. Cells then received 100 μL fresh medium with increasing concentrations of ivospemin. Following 96 hours of ivospemin monotherapy, 20 μL of CellTiter-Blue reagent (Promega, Madison, WI) was added, and following a 3-hour incubation, the fluorescence was measured in black, clear-bottom plates at 560Ex/590Em on a SpectraMax M5 (Molecular Devices, Sunnyvale CA). Wells containing medium alone were used as background controls. The combination chemotherapy/ivospemin experiment conditions were identical except following 72 hours of ivospemin exposure, cells received fresh medium with ivospemin and the appropriate chemotherapeutic. After an additional 24 hours (96 total hours of ivospemin, 24 hours of chemotherapy), cell viability was determined using the CellTiter-Blue cell viability assay. Results are presented as percentages relative to untreated cells. Each bar is an average of at least 3 independent biological experiments (each experiment is noted by an individual point).
# [1] = tested on: ovarian adenocarcinoma cell lines; assay: Cell viability, ovarian adenocarcinoma cell lines taken together; type: cell-based; settings: for added in vitro toxicity/benefit of the chemotherapeutic over ivospemin (SBP-101) alone: cisplatin-sensitive and cisplatin-resistant ovarian cancer cell lines
# Excerpt: as §1, §2
# The cisplatin-sensitive ovarian adenocarcinoma lines, A2780 and OV90 (FIG. 4A), and the cisplatin-resistant ovarian adenocarcinoma lines, ACRP and CaOV-3 (FIG. 4B), were treated for 96 hours with concentrations of ivospemin ranging from 500 nM to 10 μM. […] These four ovarian adenocarcinoma lines were then treated with various chemotherapeutic agents including gemcitabine (50 nM), topotecan (50 nM), paclitaxel (2 nM) and docetaxel (2 nM). These agents represent standard of care chemotherapeutic options used with some regularity in patients with platinum-resistant ovarian cancer. Cells were treated with three increasing concentrations of each chemotherapy alone to determine an appropriate dose prior to combination studies.
# SSAT = SSAT activity in treated ovarian adenocarcinoma line; type: cell-based, human; settings: ivospemin 5 μM, doxorubicin 500 nM, 48 hours
# Description: (§3) FIG. 11. […] The activity of the polyamine catabolic enzyme SSAT and the polyamine biosynthetic enzyme ODC was evaluated.
# (§4) The activity of polyamine catabolic enzyme SSAT and polyamine biosynthetic enzyme ODC were evaluated.
# ODC = ODC activity in treated ovarian adenocarcinoma line; type: cell-based, human; settings: ivospemin 5 μM, doxorubicin 500 nM, 48 hours
# Description: as §3, §4
# [2] = in vivo; cited from earlier work
# [3] = tested on: VDID8+ syngeneic ovarian epithelial cancer cells; assay: VDID8+ syngeneic mouse model of ovarian cancer (survival, ascites); settings: for effect on survival as single agent / average ascites volume at first drain: monotherapy; for effect on survival as single agent: VDID8+ model; for average time between VDID8+ cell injection and ascites formation: 15% weight gain or visible abdominal swelling
# Description: Syngeneic mouse model. Female C57BL/6J wild-type mice (7-8 weeks old, The Jackson Laboratory) were housed at the Johns Hopkins Sidney Kimmel Comprehensive Cancer Center Animal Resources Core and cared for in accordance with the policies set forth by the Johns Hopkins University Animal Care and Use Committee. VEGF-β-Defensin ID8 (VDID8+) syngeneic mouse ovarian surface epithelial cells (first developed by Dr. Katherine Roby) were injected intraperitoneally into C57BL/6 mice (350,000 cells/mouse) (Roby et al., 2000). Treatment of mice began three days following VDID8^+ injection. Mice in the combination study were treated with the following dosing schedule: 24 mg/kg ivospemin 2qw×3, alternating weeks; 30 mg/kg gemcitabine qw×4; 1 mg/kg topotecan 3qw×4. All drugs were administered intraperitoneally. Following production of palpable ascites fluid or a 15% weight gain, animals were drained of their ascites fluid, which was measured as a marker for tumor burden. Decisions for subsequent drains was determined by the same criteria. No animals were drained more than once a week, and animals who survived to a fourth drain were subsequently euthanized.
# Statistical analysis. All statistical testing was completed using GraphPad Prism software (v9.5.1, La Jolla, CA). […] Multiple testing correction was performed based on the Benjamini-Hochberg method. […] All mouse survival curves were analyzed using the log-rank (Mantel-Cox) test. Mouse ascites data were analyzed by one-way ANOVA and then individual comparisons were analyzed by two-sided Welch's t-tests unless otherwise specified. Multiple testing correction was performed based on the Benjamini-Hochberg method. […] P-value indications are as follows: *<0.05; **<0.01; ***<0.001; ****<0.0001.
# tumor putrescine levels = settings: eflornithine infusion; cited from earlier work
# A2780 = assay: Cell viability assay (CellTiter-Blue), A2780; type: cell-based; settings: for toxicity of the chemotherapeutic agent with ivospemin co-treatment (cell viability): A2780, 2 μM ivospemin 96 h, gemcitabine 50 nM, topotecan 50 nM, paclitaxel 2 nM, docetaxel 2 nM last 24 h
# Excerpt: as §1, §2
# CaOV-3 = assay: Cell viability assay (CellTiter-Blue), CaOV-3; type: cell-based; settings: for toxicity of the chemotherapeutic agent with ivospemin co-treatment (cell viability): CaOV-3, 2 μM ivospemin 96 h, chemotherapeutic last 24 h
# Excerpt: as §1, §2
# ACRP = assay: Cell viability assay (CellTiter-Blue), ACRP; type: cell-based; settings: for toxicity of the chemotherapeutic agent with ivospemin co-treatment (cell viability): 2 μM ivospemin 96 h, chemotherapeutic last 24 h
# Excerpt: as §1, §2
# VDID8+ cells = settings: NSG mice
compound,measurement,setting,value
CC(=O)O[C@@]12CO[C@@H]1C[C@H](O)[C@@]1(C)C(=O)[C@H](O)C3=C(C)[C@@H](OC(=O)[C@H](O)[C@@H](NC(=O)OC(C)(C)C)c4ccccc4)C[C@@](O)([C@@H](OC(=O)c4ccccc4)[C@H]21)C3(C)C [docetaxel],toxicity of the chemotherapeutic agent with ivospemin co-treatment (cell viability),OV90,did not increase
same,added in vitro toxicity/benefit of the chemotherapeutic over ivospemin (SBP-101) alone,[1],little to no benefit; also recorded: did not have any added benefit
"COc1cccc2c1C(=O)c1c(O)c3c(c(O)c1C2=O)C[C@@](O)(C(=O)CO)C[C@@H]3OC1CC(N)C(O)C(C)O1 (stereo partly drawn) [doxorubicin, (8S,10S)-10-(4-amino-5-hydroxy-6-methyl-tetrahydro-2H-pyran-2-yloxy)-6,8,11-trihydroxy-8-(2-hydroxyacetyl)-1-methoxy-7,8,9,10-tetrahydrotetracene-5,12-dione]",SSAT activity,SSAT,increases SSAT activity
same,ODC activity,ODC,does not have any effect
same,"nausea and vomiting, share of people treated",[2],30-90%
same,median survival,"[3]; ivospemin 24 mg/kg 2qw×4 alternating weeks, doxorubicin 0.5 mg/kg 2qw×4",96 days
same,effect on survival as single agent,[3],significantly increased
"NCCCC(N)(C(=O)O)C(F)F (stereo not shown) [eflornithine, 2,5-diamino-2-(difluoromethyl) pentanoic acid]",decrease in tumor putrescine levels,tumor putrescine levels,90%
Nc1ccn([C@@H]2O[C@H](CO)[C@@H](O)C2(F)F)c(=O)n1 [gemcitabine],toxicity of the chemotherapeutic agent with ivospemin co-treatment (cell viability),OV90,did increase; also recorded: increased the toxicity
same,toxicity of the chemotherapeutic agent with ivospemin co-treatment (cell viability),A2780,significantly exceeded the effect of ivospemin alone
same,toxicity of the chemotherapeutic agent with ivospemin co-treatment (cell viability),CaOV-3,significantly increased; also recorded: increased the toxicity
same,toxicity of the chemotherapeutic agent with ivospemin co-treatment (cell viability),ACRP,greater toxicity than ivospemin alone; also recorded: significantly exceeded the effect of ivospemin alone
same,added in vitro toxicity/benefit of the chemotherapeutic over ivospemin (SBP-101) alone,[1],increased ivospemin toxicity; also recorded: increased the in vitro toxicity of SBP-101
same,average time between VDID8+ cell injection and ascites formation,[3],41.7 days
same,average ascites volume at first drain,[3],2.03 mL
same,effect on survival as single agent,[3],Neither gemcitabine nor topotecan produced a statistically significant survival benefit
same,effect on survival as single agent,[3]; listed as Gemcitabine,little effect
"CCNCCC(O)CNCCCCNCC(O)CCNCC (stereo not shown) [ivospemin, 3,8,13,18-tetraazaicosane-6,15-diol]",pIC50,"OV90; Homo sapiens, OV-90, ivospemin 96 hours, OV90, cisplatin sensitive",5.49
same,pIC50,"A2780; Homo sapiens, ivospemin 96 hours, A2780, cisplatin sensitive",6.02
same,pIC50,"CaOV-3; Homo sapiens, ivospemin 96 hours, CaOV-3, cisplatin resistant",5.59
same,pIC50,"ACRP; ivospemin 96 hours, cisplatin resistant",5.85
same,pIC50,"[1]; 96 hours, A2780, OV90, ACRP, CaOV-3, read-out: IC50 values, all four lines",5.49 to 6.02
same,SSAT activity,SSAT,increases SSAT activity
same,SSAT activity,SSAT; listed as SBP-101,increase SSAT activity
same,ODC activity,ODC,depression of ODC activity
same,ODC activity,ODC; listed as SBP-101,decreases ODC activity
same,tumor burden and ascites formation,VDID8+ cells,Neither ivospemin alone nor the combination treatment decrease tumor burden or delayed ascites formation
same,average time between VDID8+ cell injection and ascites formation,[3],39.5 days
same,median survival,"[3]; days post-injection, ivospemin 24 mg/kg 2qw×3 alternating weeks, gemcitabine 30 mg/kg qw×4, topotecan 1 mg/kg 3qw×4, i.p.",52 days
same,increase in median survival compared to untreated (control) animals,[3]; gemcitabine/topotecan combination study,20%
same,average ascites volume at first drain,[3],1.15 mL
same,effect on survival as single agent,[3]; listed as SBP-101,marked increase; also recorded: significantly increased
CC(=O)O[C@H]1C(=O)[C@@]2(C)[C@H]([C@H](OC(=O)c3ccccc3)[C@]3(O)C[C@H](OC(=O)[C@H](O)[C@@H](NC(=O)c4ccccc4)c4ccccc4)C(C)=C1C3(C)C)[C@]1(OC(C)=O)CO[C@@H]1C[C@@H]2O [paclitaxel],toxicity of the chemotherapeutic agent with ivospemin co-treatment (cell viability),OV90,did not increase
same,added in vitro toxicity/benefit of the chemotherapeutic over ivospemin (SBP-101) alone,[1],little to no benefit
same,added in vitro toxicity/benefit of the chemotherapeutic over ivospemin (SBP-101) alone,[1]; listed as Paclitaxel,did not have any added benefit
CC[C@@]1(O)C(=O)OCc2c1cc1n(c2=O)Cc2cc3c(CN(C)C)c(O)ccc3nc2-1 [topotecan],toxicity of the chemotherapeutic agent with ivospemin co-treatment (cell viability),OV90,did increase; also recorded: increased the toxicity
same,toxicity of the chemotherapeutic agent with ivospemin co-treatment (cell viability),A2780,significantly exceeded the effect of ivospemin alone
same,toxicity of the chemotherapeutic agent with ivospemin co-treatment (cell viability),CaOV-3,significantly increased; also recorded: increased the toxicity
same,toxicity of the chemotherapeutic agent with ivospemin co-treatment (cell viability),ACRP,greater toxicity than ivospemin alone; also recorded: significantly exceeded the effect of ivospemin alone
same,added in vitro toxicity/benefit of the chemotherapeutic over ivospemin (SBP-101) alone,[1],increased ivospemin toxicity; also recorded: increased the in vitro toxicity of SBP-101
same,average time between VDID8+ cell injection and ascites formation,[3],43.4 days
same,average ascites volume at first drain,[3],3.19 mL
same,effect on survival as single agent,[3],Neither gemcitabine nor topotecan produced a statistically significant survival benefit; also recorded: little effect
